In publication PMC3849818 (Journal of medicinal chemistry, 2013):

Assays:
[1] = biological target: T1, OX2 receptor (Homo sapiens, UniProt O43614); test: OX2 calcium mobilization functional assay; format: cell-based
T1 sequence (O43614 1-444): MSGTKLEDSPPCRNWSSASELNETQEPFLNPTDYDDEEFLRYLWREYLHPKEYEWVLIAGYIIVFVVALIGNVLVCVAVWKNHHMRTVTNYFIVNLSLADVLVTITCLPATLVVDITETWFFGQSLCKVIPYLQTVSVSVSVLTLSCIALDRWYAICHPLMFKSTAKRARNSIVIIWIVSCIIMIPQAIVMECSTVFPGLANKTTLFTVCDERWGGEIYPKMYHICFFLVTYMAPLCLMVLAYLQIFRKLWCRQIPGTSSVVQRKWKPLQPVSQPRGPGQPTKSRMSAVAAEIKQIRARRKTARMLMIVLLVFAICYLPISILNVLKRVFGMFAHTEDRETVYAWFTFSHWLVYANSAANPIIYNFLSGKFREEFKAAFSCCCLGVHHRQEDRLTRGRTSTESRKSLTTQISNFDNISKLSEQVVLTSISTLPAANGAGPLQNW

[2] = tested on: OX2; conditions: read-out: IC50 OX2; Actelion high throughput screening hit; cited from earlier work
[3] = tested on: rats; test: Conditioned place preference; format: in vivo, Sprague-Dawley rats
[4] = biological target: T2, orexin 1 (OX1) receptor (Homo sapiens, UniProt O43613); test: OX1 calcium mobilization functional assay; format: cell-based; conditions: for OX2/OX1: ratio of Ke values
T2 sequence (O43613 1-425): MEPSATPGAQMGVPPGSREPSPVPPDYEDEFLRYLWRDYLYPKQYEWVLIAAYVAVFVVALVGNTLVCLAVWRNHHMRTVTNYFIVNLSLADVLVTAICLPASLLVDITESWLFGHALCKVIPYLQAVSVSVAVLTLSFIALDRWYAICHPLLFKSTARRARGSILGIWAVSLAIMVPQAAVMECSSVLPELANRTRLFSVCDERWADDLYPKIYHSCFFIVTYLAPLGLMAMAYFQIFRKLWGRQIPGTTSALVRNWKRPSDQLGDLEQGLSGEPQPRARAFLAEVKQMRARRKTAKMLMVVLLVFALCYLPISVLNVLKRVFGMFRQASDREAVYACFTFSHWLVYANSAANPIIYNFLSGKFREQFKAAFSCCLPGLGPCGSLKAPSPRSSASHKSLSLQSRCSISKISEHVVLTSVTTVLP

[5] = tested on: rats; test: Drug discrimination assay; format: in vivo; conditions: 10 min pretreatment, data not shown
[6] = 2-methylbenzoxazole undergoes ring opening under acidic conditions; cited from earlier work
[7] = tested on: OX1; conditions: read-out: IC50 OX1; cited from earlier work

Row | Structure (SMILES) | Kd [1] [µM] | OX2/OX1 [4] | also measured
1 | COc1ccc(CC2c3cc(OC)c(OC)cc3CCN2CC(=O)NCc2ccccc2)cc1OC (centres unmarked) [Compound 6, N-benzyl-2-{1-[(3,4-dimethoxyphenyl)methyl]-6,7-dimethoxy-1,2,3,4-tetrahydroisoquinolin-2-yl}acetamide] | > 10 | – | IC50 [2]: 8.1 µM
2 | COc1ccc(CC2c3cc(OCC(F)(F)F)c(OC)cc3CCN2CC(=O)NCc2cccnc2)cc1OC (centres unmarked) [Compound 72, 2-{1-[(3,4-dimethoxyphenyl)methyl]-6-methoxy-7-(2,2,2-trifluoroethoxy)-1,2,3,4-tetrahydroisoquinolin-2-yl}-N-(pyridin-3-ylmethyl)acetamide] | > 10 | >1180 | effect on development of place preference induced by cocaine ([3]; 20 mg/kg i.p. 10 min before cocaine 10 mg/kg, P < 0.05 vs cocaine): significantly attenuated; CPP produced by compound alone ([3]; 20 mg/kg i.p., n=8-9): did not produce CPP or place aversion; behavioral activity in drug discrimination [5]: behaviorally active
3 | COc1ccc(CC2c3cc(OC)c(OC)cc3CCN2CC(=O)N[C@@H](C)c2ccccc2)cc1OC (stereo partly drawn) [Compound 49, 2-{1-[(3,4-dimethoxyphenyl)methyl]-6,7-dimethoxy-1,2,3,4-tetrahydroisoquinolin-2-yl}-N-[(1S)-1-phenylethyl]acetamide] | – | – | OX2 activity in words ([1]; at 10 μM): inactive; OX1 activity in words ([4]; at 10 μM): inactive
4 | COC(=O)[C@H]1[C@@H](OC(=O)c2ccccc2)C[C@@H]2CC[C@H]1N2C [Cocaine, reference compound] | – | – | CPP produced by drug alone ([3]; 10 mg/kg i.p., n=8-9): induced robust and significant CPP
5 | CCOc1cc2c(cc1OC)CCN(CC(=O)NCc1ccccc1)C2Cc1ccc(OC)c(OC)c1 (centres unmarked) [Compound 12, N-benzyl-2-{1-[(3,4-dimethoxyphenyl)methyl]-7-ethoxy-6-methoxy-1,2,3,4-tetrahydroisoquinolin-2-yl}acetamide] | > 10 | >333 | –
6 | CCCCCCOc1cc2c(cc1OC)CCN(CC(=O)NCc1ccccc1)C2Cc1ccc(OC)c(OC)c1 (centres unmarked) [Compound 15, N-benzyl-2-{1-[(3,4-dimethoxyphenyl)methyl]-7-(hexyloxy)-6-methoxy-1,2,3,4-tetrahydroisoquinolin-2-yl}acetamide] | > 10 | >31.7 | –
7 | CCCOc1cc2c(cc1OC)CCN(CC(=O)NCc1cccnc1)C2Cc1ccc(OC)c(OC)c1 (centres unmarked) [Compound 70, 2-{1-[(3,4-dimethoxyphenyl)methyl]-6-methoxy-7-propoxy-1,2,3,4-tetrahydroisoquinolin-2-yl}-N-(pyridin-3-ylmethyl)acetamide] | > 10 | >239 | –
8 | Cc1nc2ccc(NC(=O)Nc3ccnc4cccnc34)cc2o1.Cl [Compound 1] | – | – | hydrolytic stability [6]: hydrolytic instability
9 | COc1ccc(CC2c3cc(OC)c(OC)cc3CCN2CC(=O)NCc2cccnc2)cc1OC (centres unmarked) [Compound 54, 2-{1-[(3,4-dimethoxyphenyl)methyl]-6,7-dimethoxy-1,2,3,4-tetrahydroisoquinolin-2-yl}-N-(pyridin-3-ylmethyl)acetamide] | > 10 | >65.8 | –
10 | COc1ccc(CC2c3cc(OCCCCOc4ccccc4)c(OC)cc3CCN2CC(=O)NCc2ccccc2)cc1OC (centres unmarked) [Compound 24, N-benzyl-2-{1-[(3,4-dimethoxyphenyl)methyl]-6-methoxy-7-(4-phenoxybutoxy)-1,2,3,4-tetrahydroisoquinolin-2-yl}acetamide] | > 10 | >230 | –
11 | CCOc1cc2c(cc1OC)CCN(CC(=O)NCc1cccnc1)C2Cc1ccc(OC)c(OC)c1 (centres unmarked) [Compound 74, 2-{1-[(3,4-dimethoxyphenyl)methyl]-7-ethoxy-6-methoxy-1,2,3,4-tetrahydroisoquinolin-2-yl}-N-(pyridin-3-ylmethyl)acetamide] | > 10 | >637 | –
12 | COc1ccc(CC2c3cc(OS(=O)(=O)C(F)(F)F)c(OC)cc3CCN2CC(=O)NCc2ccccc2)cc1OC (centres unmarked) [Compound 27, 2-[(benzylcarbamoyl)methyl]-1-[(3,4-dimethoxyphenyl)methyl]-6-methoxy-1,2,3,4-tetrahydroisoquinolin-7-yl trifluoromethanesulfonate] | > 10 | >1000 | –
13 | COc1ccc(C[C@H]2c3cc(OC)c(OC)cc3CCN2[C@@H](C(=O)NC(C)C)c2ccccc2)cc1OC [ACT-335827, reference compound] | – | – | IC50 [7]: 0.006 µM
